Laboratory results as given in publication PMC6001364 (European journal of medicinal chemistry, 2018).
Like-named read-outs stand apart in the source and are kept apart here.

Columns and labels:
WT HIV-1 strain (IIIB) [1] = type: cell-based; conditions: ratio of CC50/EC50, MT-4 cells
[2] = test system: K103 N + Y181C double mutant HIV-1 strain (RES056); assay: Anti-HIV-1 activity against double mutant RES056 in MT-4 cells, MTT method; type: cell-based; conditions: for SI RES056: ratio of CC50/EC50, MT-4 cells, values given with symbol X1; for EC50 RES056: MT-4 cells, MTT method
[3] = test system: HIV-1 Y181C mutant strain; type: cell-based
[4] = test system: HIV-1 L100I mutant strain; assay: microbe, parasite or virus in culture; type: cell-based
[5] = test system: HIV-1 Y188L mutant strain; assay: microbe, parasite or virus in culture; type: cell-based; conditions: for EC50: Human immunodeficiency virus 1, MT4, read-out: EC50 Y188L
[6] = test system: HIV-1 E138K mutant strain; assay: microbe, parasite or virus in culture; type: cell-based
[7] = test system: HIV-1 K103 N mutant strain; type: cell-based; conditions: ratio of CC50/EC50, MT-4 cells
[8] = Cytotoxicity in mock-infected MT-4 cells, MTT method; type: cell-based; conditions: human
[9] = test system: HIV-1 F227L + V106A mutant strain; assay: microbe, parasite or virus in culture; type: cell-based
wild-type HIV-1 (NL4-3) = assay: Inhibition of wild-type HIV-1; type: cell-based; conditions: ratio of CC50/EC50, TZM-bl cells
HIV-1 RT = HIV-1 RT (Human immunodeficiency virus type 1 group M subtype B, UniProt P03366); conditions: read-out: IC50 against HIV-1 RT; cited from earlier work
[10] = test system: K103 N + Y181C double mutant HIV-1 strain (RES056); conditions: cited from earlier work
MT-4 cells = conditions: cited from earlier work
WT HIV-1 strain (IIIB) [11] = conditions: cited from earlier work

Cc1cc(C)c(Oc2cc(Nc3ccc(C#N)cc3)ncc2C(=O)NCc2cn(Cc3ccc([N+](=O)[O-])cc3)nn2)c(C)c1 [3a14, N-((1-(4-nitrobenzyl)-1H-1,2,3-triazol-4-yl)methyl)-6-((4-cyanophenyl)amino)-4-(mesityloxy)nicotinamide]
SI IIIB (WT HIV-1 strain (IIIB) [1]): ≥3498

Cc1cc(C)c(Oc2cc(Nc3ccc(C#N)cc3)ncc2C(=O)NCc2cn(Cc3ccccc3C#N)nn2)c(C)c1 [3a4, N-((1-(2-cyanobenzyl)-1H-1,2,3-triazol-4-yl)methyl)-6-((4-cyanophenyl)amino)-4-(mesityloxy)nicotinamide]
SI IIIB (WT HIV-1 strain (IIIB) [1]): >5589 | SI RES056 [2]: X1

Cc1cc(C)c(Oc2cc(Nc3ccc(C#N)cc3)ncc2C(=O)NCc2cn(Cc3ccccc3Cl)nn2)c(C)c1 [3a3, N-((1-(2-chlorobenzyl)-1H-1,2,3-triazol-4-yl)methyl)-6-((4-cyanophenyl)amino)-4-(mesityloxy)nicotinamide]
SI IIIB (WT HIV-1 strain (IIIB) [1]): ≥1807

Cc1cc(C)c(Oc2cc(Nc3ccc(C#N)cc3)ncc2C(=O)NCc2cn(Cc3cccc([N+](=O)[O-])c3)nn2)c(C)c1 [3a10, N-((1-(3-nitrobenzyl)-1H-1,2,3-triazol-4-yl)methyl)-6-((4-cyanophenyl)amino)-4-(mesityloxy)nicotinamide]
SI IIIB (WT HIV-1 strain (IIIB) [1]): ≥4220

CC(C)Nc1cccnc1N1CCN(C(=O)c2cc3cc(NS(C)(=O)=O)ccc3[nH]2)CC1 [DLV, Delavirdine]
SI Y181C ([3]; ratio of CC50/EC50, MT-4 cells): 15 | SI L100I ([4]; ratio of CC50/EC50, MT-4 cells): 14 | SI Y188L ([5]; ratio of CC50/EC50, MT-4 cells): 44 | SI E138K ([6]; ratio of CC50/EC50, MT-4 cells): 715 | SI K103 N [7]: 12 | CC50 at 5 days [8]: 36800 nM | SI F227L + V106A ([9]; ratio of CC50/EC50, MT-4 cells): 16

Cc1cc(C)c(Oc2cc(Nc3ccc(C#N)cc3)ncc2C(=O)NCc2cn(CC(=O)N3CCOCC3)nn2)c(C)c1 [3b9, 6-((4-cyanophenyl)amino)-4-(mesityloxy)-N-((1-(2-morpholino-2-oxoethyl)-1H-1,2,3-triazol-4-yl)methyl)nicotinamide]
SI IIIB (WT HIV-1 strain (IIIB) [1]): 9279 | SI (wild-type HIV-1 (NL4-3)): >10.8 | EC50 RES056 [2]: low micromolar concentration

Cc1cc(C)c(Oc2cc(Nc3ccc(C#N)cc3)ncc2C(=O)NCc2cn(Cc3ccccc3F)nn2)c(C)c1 [3a2, N-((1-(2-fluorobenzyl)-1H-1,2,3-triazol-4-yl)methyl)-6-((4-cyanophenyl)amino)-4-(mesityloxy)nicotinamide]
SI IIIB (WT HIV-1 strain (IIIB) [1]): >2348 | SI RES056 [2]: X1

Cc1cc(C)c(Oc2cc(Nc3ccc(C#N)cc3)ncc2C(=O)NCc2cn(CC(=O)N3CCCC3)nn2)c(C)c1 [3b8, 6-((4-cyanophenyl)amino)-4-(mesityloxy)-N-((1-(2-oxo-2-(pyrrolidin-1-yl)ethyl)-1H-1,2,3-triazol-4-yl)methyl)nicotinamide]
EC50 RES056 [2]: low micromolar concentration

Cc1cc(C)c(Oc2cc(Nc3ccc(C#N)cc3)ncc2C(=O)NCc2cn(Cc3ccc(Cl)cc3)nn2)c(C)c1 [3a13, N-((1-(4-chlorobenzyl)-1H-1,2,3-triazol-4-yl)methyl)-6-((4-cyanophenyl)amino)-4-(mesityloxy)nicotinamide]
SI IIIB (WT HIV-1 strain (IIIB) [1]): ≥620

CCOc1ccnc(CCNC(=S)Nc2ccc(Cl)cn2)c1F [PETT-2]
IC50 (HIV-1 RT): 5 nM

Cc1ccnc2c1NC(=O)c1cccnc1N2C1CC1 [NVP, Nevirapine]
EC50 ([4]; Human immunodeficiency virus 1, MT4, read-out: EC50 L100I): 830 ± 320 nM | EC50 [5]: 9610 ± 1860 nM

Cc1cc(C#N)cc(C)c1Oc1nc(Nc2ccc(C#N)cc2)nc(N)c1Br [ETR, Etravirine]
CC50 at 5 days [8]: 2460 nM

C#CCNC(=O)c1cnc(Nc2ccc(C#N)cc2)cc1Oc1c(C)cc(C)cc1C [L-6b5, 6-((4-cyanophenyl)amino)-4-(mesityloxy)-N-(prop-2-yn-1-yl)nicotinamide]
SI RES056 ([10]; ratio of CC50/EC50): 12 | EC50 ([10]; read-out: EC50 RES056, MT-4 cells): 6100 ± 540 nM | CC50 (MT-4 cells): 73000 ± 26900 nM | SI IIIB (WT HIV-1 strain (IIIB) [11]; ratio of CC50/EC50): 2471 | EC50 (WT HIV-1 strain (IIIB) [11]; read-out: EC50 IIIB, MT-4 cells): 29 ± 5 nM

Cc1cc(C)c(Oc2cc(Nc3ccc(C#N)cc3)ncc2C(=O)NCc2cn(Cc3cccc(F)c3)nn2)c(C)c1 [3a7, N-((1-(3-fluorobenzyl)-1H-1,2,3-triazol-4-yl)methyl)-6-((4-cyanophenyl)amino)-4-(mesityloxy)nicotinamide]
SI IIIB (WT HIV-1 strain (IIIB) [1]): ≥2608

Cc1cc(C)c(Oc2cc(Nc3ccc(C#N)cc3)ncc2C(=O)NCc2cn(Cc3ccccc3[N+](=O)[O-])nn2)c(C)c1 [3a5, N-((1-(2-nitrobenzyl)-1H-1,2,3-triazol-4-yl)methyl)-6-((4-cyanophenyl)amino)-4-(mesityloxy)nicotinamide]
SI IIIB (WT HIV-1 strain (IIIB) [1]): >3724 | SI RES056 [2]: X1

O=C1Nc2ccc(Cl)cc2[C@@](C#CC2CC2)(C(F)(F)F)O1 [EFV, Efavirenz]
EC50 [5]: 340 ± 10 nM | EC50 ([9]; Human immunodeficiency virus 1, MT4, read-out: EC50 F227L + V106A): 210 ± 8 nM

Cc1cc(C)c(Oc2cc(Nc3ccc(C#N)cc3)ncc2C(=O)NCc2cn(CC(N)=O)nn2)c(C)c1 [3b7, N-((1-(2-amino-2-oxoethyl)-1H-1,2,3-triazol-4-yl)methyl)-6-((4-cyanophenyl)amino)-4-(mesityloxy)nicotinamide]
EC50 RES056 [2]: low micromolar concentration

CC(=O)Cn1cc(CNC(=O)c2cnc(Nc3ccc(C#N)cc3)cc2Oc2c(C)cc(C)cc2C)nn1 [3b3, 6-((4-cyanophenyl)amino)-4-(mesityloxy)-N-((1-(2-oxopropyl)-1H-1,2,3-triazol-4-yl)methyl)nicotinamide]
EC50 RES056 [2]: low micromolar concentration

Cc1cc(C)c(Oc2cc(Nc3ccc(C#N)cc3)ncc2C(=O)NCc2cn(Cc3ccc(F)cc3)nn2)c(C)c1 [3a12, N-((1-(4-fluorobenzyl)-1H-1,2,3-triazol-4-yl)methyl)-6-((4-cyanophenyl)amino)-4-(mesityloxy)nicotinamide]
SI IIIB (WT HIV-1 strain (IIIB) [1]): ≥2056

Cc1cc(C)c(Oc2cc(Nc3ccc(C#N)cc3)ncc2C(=O)NCc2cn(Cc3cccc(C#N)c3)nn2)c(C)c1 [3a9, N-((1-(3-cyanobenzyl)-1H-1,2,3-triazol-4-yl)methyl)-6-((4-cyanophenyl)amino)-4-(mesityloxy)nicotinamide]
SI IIIB (WT HIV-1 strain (IIIB) [1]): ≥5213

Cc1cc(C)c(Oc2cc(Nc3ccc(C#N)cc3)ncc2C(=O)NCc2cn(CCC#N)nn2)c(C)c1 [3b2, N-((1-(2-cyanoethyl)-1H-1,2,3-triazol-4-yl)methyl)-6-((4-cyanophenyl)amino)-4-(mesityloxy)nicotinamide]
SI IIIB (WT HIV-1 strain (IIIB) [1]): 2044 | EC50 RES056 [2]: low micromolar concentration

Cc1cc(C)c(Oc2cc(Nc3ccc(C#N)cc3)ncc2C(=O)NCc2cn(CCCO)nn2)c(C)c1 [3b1, 6-((4-cyanophenyl)amino)-N-((1-(3-hydroxypropyl)-1H-1,2,3-triazol-4-yl)methyl)-4-(mesityloxy)nicotinamide]
EC50 RES056 [2]: low micromolar concentration

Cc1cc(C)c(Oc2cc(Nc3ccc(C#N)cc3)ncc2C(=O)NCc2cn(Cc3ccccc3C)nn2)c(C)c1 [3a1, N-((1-(2-methylbenzyl)-1H-1,2,3-triazol-4-yl)methyl)-6-((4-cyanophenyl)amino)-4(mesityloxy)nicotinamide]
SI IIIB (WT HIV-1 strain (IIIB) [1]): ≥2132

Cc1cn([C@H]2C[C@H](N=[N+]=[N-])[C@@H](CO)O2)c(=O)[nH]c1=O [AZT, Zidovudine]
Resistance Folds Y181C ([3]; ratio of EC50 against mutant strain/EC50 against WT strain): 1.0 | EC50 ([6]; Human immunodeficiency virus 1, MT4, read-out: EC50 E138K): 13 ± 4 nM
